The target of experiment [1] is T1, Tyrosine-protein kinase ABL (Homo sapiens, UniProt P00519+P42684).
Description: Concentration required for inhibition of v-Abl receptor by tyrosine kinase enzyme assay
The target of experiment [2] is Proto-oncogene tyrosine-protein kinase Src (Gallus gallus, UniProt P00523). Briefly: Concentration required for inhibition of c-Src mediated phosphorylation of Fak in IC8.1 fibroblast cell assay. The experiment is classed as functional, cell-based.
In experiment [3] the target is Proto-oncogene tyrosine-protein kinase Src (Homo sapiens, UniProt P12931). Nature of the experiment: Inhibition of p60 c-Src tyrosine kinase enzyme activity in liquid-phase tyrosine phosphorylation assay at 830 ng/mL.
Chain of Proto-oncogene tyrosine-protein kinase Src (Homo sapiens, UniProt P12931) (P12931 2-536 limits assumed): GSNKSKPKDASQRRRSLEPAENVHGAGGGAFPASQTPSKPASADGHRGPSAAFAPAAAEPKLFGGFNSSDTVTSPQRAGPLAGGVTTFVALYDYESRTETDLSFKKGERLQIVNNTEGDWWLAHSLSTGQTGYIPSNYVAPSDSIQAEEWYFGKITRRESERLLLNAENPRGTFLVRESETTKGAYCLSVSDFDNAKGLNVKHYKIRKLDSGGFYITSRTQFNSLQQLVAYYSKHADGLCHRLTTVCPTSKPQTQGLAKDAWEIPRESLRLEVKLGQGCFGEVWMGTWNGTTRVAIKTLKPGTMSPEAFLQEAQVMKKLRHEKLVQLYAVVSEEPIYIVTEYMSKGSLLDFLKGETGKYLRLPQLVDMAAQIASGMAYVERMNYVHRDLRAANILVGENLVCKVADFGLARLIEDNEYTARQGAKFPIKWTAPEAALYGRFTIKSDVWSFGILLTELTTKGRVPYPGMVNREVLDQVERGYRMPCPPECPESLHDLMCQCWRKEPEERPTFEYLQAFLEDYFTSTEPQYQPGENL
For experiment [4], the target named is T2, Epidermal growth factor receptor (Homo sapiens, UniProt P00533). Nature of the experiment: Concentration required for inhibition of epidermal growth factor receptor (EGF-R) by tyrosine kinase enzyme activity.
T2 sequence (P00533 whole entry): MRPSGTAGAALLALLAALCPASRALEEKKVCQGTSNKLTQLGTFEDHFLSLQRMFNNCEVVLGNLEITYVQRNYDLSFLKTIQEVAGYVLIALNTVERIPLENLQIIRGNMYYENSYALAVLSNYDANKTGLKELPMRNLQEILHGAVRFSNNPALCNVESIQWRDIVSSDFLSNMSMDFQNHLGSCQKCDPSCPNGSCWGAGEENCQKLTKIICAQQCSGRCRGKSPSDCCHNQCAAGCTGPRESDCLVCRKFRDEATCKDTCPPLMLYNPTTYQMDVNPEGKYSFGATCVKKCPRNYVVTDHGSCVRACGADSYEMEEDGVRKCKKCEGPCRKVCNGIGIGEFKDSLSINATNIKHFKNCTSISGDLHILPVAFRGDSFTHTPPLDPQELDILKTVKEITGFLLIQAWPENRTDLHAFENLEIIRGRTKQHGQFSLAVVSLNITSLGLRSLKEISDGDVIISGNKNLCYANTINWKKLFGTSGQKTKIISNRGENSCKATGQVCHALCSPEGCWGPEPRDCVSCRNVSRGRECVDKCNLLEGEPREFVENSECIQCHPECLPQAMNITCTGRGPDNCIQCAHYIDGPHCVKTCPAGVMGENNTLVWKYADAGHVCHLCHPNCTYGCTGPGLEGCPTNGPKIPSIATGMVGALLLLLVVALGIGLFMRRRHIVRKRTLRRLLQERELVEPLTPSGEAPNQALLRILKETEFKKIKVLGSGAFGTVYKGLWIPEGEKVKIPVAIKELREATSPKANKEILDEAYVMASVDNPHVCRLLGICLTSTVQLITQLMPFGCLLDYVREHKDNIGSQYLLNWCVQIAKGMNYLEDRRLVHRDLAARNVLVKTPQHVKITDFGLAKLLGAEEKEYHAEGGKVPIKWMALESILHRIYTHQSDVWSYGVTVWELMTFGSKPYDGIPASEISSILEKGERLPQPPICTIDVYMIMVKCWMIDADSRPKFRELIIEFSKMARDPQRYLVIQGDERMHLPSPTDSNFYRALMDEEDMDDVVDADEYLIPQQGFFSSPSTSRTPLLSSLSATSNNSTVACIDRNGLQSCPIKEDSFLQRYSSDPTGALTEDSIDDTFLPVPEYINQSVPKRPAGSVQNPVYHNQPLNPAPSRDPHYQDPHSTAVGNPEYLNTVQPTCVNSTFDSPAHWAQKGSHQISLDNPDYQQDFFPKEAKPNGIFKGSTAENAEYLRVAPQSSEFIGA
The target of experiment [5] is T2, Epidermal growth factor receptor. Briefly: Inhibition of epidermal growth factor receptor (EGF-R).
Experiment [6] shares this target. Nature of the experiment: Inhibition of autophosphorylation of epidermal growth factor receptor (EGF-R) in a cellular assay.
Experiment [7] addresses T1, Tyrosine-protein kinase ABL. Nature of the experiment: Inhibition of v-Abl receptor tyrosine kinase enzyme activity. The experiment is classed as protein assay.

pIC50: −log10 of the molar value.

By IC50 is commonly meant the point on the concentration scale where inhibition reaches its midpoint. Read a low IC50 as greater potency. As a reminder, the pIC50 is −log10 of the IC50, conventionally taken in molar units. Low values mean a high IC50, high ones a low IC50.

As for `COc1cccc(-c2cn(C3CCN(CC(N)=O)CC3)c3ncnc(N)c23)c1`, the half-maximal inhibitory concentration (IC50) in experiment [1] was 550 nM. In addition, the negative logarithm of the IC50 (pIC50) in experiment [2] was 6.15; in experiment [3] it was 7.66; in experiment [4], 6.46.
On to `CC(C)(C)OC(=O)N1CCC(n2cc(-c3ccccc3)c3c(N)ncnc32)C1` (stereo not drawn), for which the results for the pIC50 in experiment [2], in experiment [3] and in experiment [4] were less than 5.30, 6.74 and 5.08, respectively.
Molecule `COc1cccc(-c2cn(C3CCN(CC(N)=O)C3)c3ncnc(N)c23)c1` (stereo not drawn) came in with an IC50 in experiment [1] of 700 nM. Also, the pIC50 was less than 5.30 in experiment [2], 7.42 in experiment [3] and 6.36 in experiment [4].
As to `CCOC(=O)C[C@H]1C[C@H](n2cc(-c3ccc(O)cc3)c3c(N)ncnc32)CN1C(=O)OC(C)(C)C`, the pIC50 in experiment [2] is 6.15; in experiment [3], 7.46.
Take `COCCN(C)CCN1CCC(n2cc(-c3cccc(OC)c3)c3c(N)ncnc32)CC1`: the pIC50 in experiment [5] was 6.03; in experiment [2], 6.30; in experiment [6], less than 5.00; in experiment [3] it was 7.33. Besides, in experiment [1], the IC50 turned out to be 500 nM.
For `CCOC(=O)C[C@H]1C[C@@H](n2cc(-c3ccc(O)cc3)c3c(N)ncnc32)CN1C(=O)OC(C)(C)C`, the negative logarithm of the IC50 (pIC50) in experiment [3] was 6.52.
Still for that read-out and setting: for `CC(C)(C)OC(=O)N1C[C@H](n2cc(-c3ccc(O)cc3)c3c(N)ncnc32)C[C@@H]1CO` the value was 6.46.
On to `NC(=O)CN1CCC(n2cc(-c3cccc(O)c3)c3c(N)ncnc32)CC1`, for which the 50% inhibitory concentration (IC50) in experiment [1] was 210 nM. For the same molecule, the negative-log IC50 (pIC50) in experiment [2] is 6.10; in experiment [6], less than 5.00; in experiment [3], 9.00; in experiment [4] it was 6.77.
As to `CCOC(=O)C[C@H]1C[C@H](n2cc(-c3ccccc3)c3c(N)ncnc32)CN1`, the pIC50 in experiment [3] was 6.22.
As to `CC(C)(C)OC(=O)N1C[C@@H](n2cc(-c3ccccc3)c3c(N)ncnc32)C[C@@H]1CO`, the negative logarithm of the IC50 (pIC50) in experiment [3] is 6.89.
With `COc1cccc(-c2cn(C3CCNC3)c3ncnc(N)c23)c1` (stereo not drawn), in experiment [1], the half-inhibitory concentration (IC50) was 1400 nM. Moreover, the results for the pIC50 in experiment [2], in experiment [3] and in experiment [4] were less than 5.30, 7.28 and 5.95, respectively.
Turning to `CC(C)(C)OC(=O)N1C[C@H](n2cc(-c3ccccc3)c3c(N)ncnc32)C[C@@H]1CO`, the negative-log IC50 (pIC50) in experiment [3] is 5.70.
The same measure, in the same setting: with `Nc1ncnc2c1c(-c1ccccc1)cn2[C@H]1CN[C@@H](CO)C1` the figure was 6.89.
In the case of `CCOC(=O)C[C@H]1C[C@@H](n2cc(-c3ccc(O)cc3)c3c(N)ncnc32)CN1`, the negative logarithm of the IC50 (pIC50) in experiment [2] was 5.48; in experiment [3], 8.30.
Regarding `COc1cccc(-c2cn(C3CCN(CC(=O)N(C)C)CC3)c3ncnc(N)c23)c1`, the negative logarithm of the IC50 (pIC50) is less than 5.30 in experiment [2], 7.17 in experiment [3] and 6.12 in experiment [4].
As for `Nc1ncnc2c1c(-c1ccc(O)cc1)cn2C1CN[C@@H](CO)C1` (single isomer, unassigned), the negative-log IC50 (pIC50) in experiment [2] is less than 5.30; in experiment [3] it was 7.02.
The molecule `CN(C)C(=O)CN1CCC(n2cc(-c3cccc(O)c3)c3c(N)ncnc32)CC1` yielded a concentration for half-maximal inhibition (IC50) in experiment [1] of 120 nM. Besides, the pIC50 in experiment [6] is less than 5.00; in experiment [3] it was 8.52; in experiment [4] it was 6.30.
Take `COCCNCCN1CCC(n2cc(-c3cccc(OC)c3)c3c(N)ncnc32)CC1`: the pIC50 is 6.51 in experiment [5]; 6.54 in experiment [2]; 6.51 in experiment [7]; less than 5.00 in experiment [6]; 7.82 in experiment [3].
Regarding `Nc1ncnc2c1c(-c1cccc(O)c1)cn2C1CCNC1` (stereo not drawn), the concentration for half-maximal inhibition (IC50) in experiment [1] was 290 nM. In addition, the pIC50 was 6.10 in experiment [2], less than 5.00 in experiment [6], 8.22 in experiment [3] and 5.82 in experiment [4].
Take `COc1cccc(-c2cn(C3CCN(C(=O)OC(C)(C)C)C3)c3ncnc(N)c23)c1` (stereo not drawn): the IC50 in experiment [1] turned out to be 2400 nM. For the same molecule, the negative-log IC50 (pIC50) in experiment [2] was 5.36; in experiment [3] it was 6.57; in experiment [4], 5.68.
`Nc1ncnc2c1c(-c1ccccc1)cn2[C@@H]1CN[C@@H](CO)C1` showed a pIC50 in experiment [3] of 6.52.
Same read-out and setting: with `CCOC(=O)C[C@H]1C[C@@H](n2cc(-c3ccccc3)c3c(N)ncnc32)CN1C(=O)OC(C)(C)C` the figure was 5.30.
Same read-out and setting: with `CCOC(=O)C[C@H]1C[C@H](n2cc(-c3ccc(O)cc3)c3c(N)ncnc32)CN1` the figure was 7.00.
`CCOC(=O)C[C@H]1C[C@@H](n2cc(-c3ccccc3)c3c(N)ncnc32)CN1`: the pIC50 in experiment [2] was less than 5.30; in experiment [3] it was 7.82.
In the case of `COC(=O)CN1CCC(n2cc(-c3cccc(O)c3)c3c(N)ncnc32)CC1`, the half-inhibitory concentration (IC50) in experiment [1] came out at 56 nM. Also, the pIC50 was 6.40 in experiment [2], less than 5.00 in experiment [6], more than 9.00 in experiment [3] and 6.10 in experiment [4].
Regarding `COC(=O)CN1CCC(n2cc(-c3cccc(O)c3)c3c(N)ncnc32)C1` (stereo not drawn), in experiment [1], the IC50 came out at 54 nM. Further, the pIC50 was 6.15 in experiment [2], less than 5.00 in experiment [6], 8.52 in experiment [3] and 6.13 in experiment [4].
On to `Nc1ncnc2c1c(-c1ccc(O)cc1)cn2C1CCNC1` (stereo not drawn), for which, in experiment [1], the IC50 turned out to be 2800 nM. Moreover, the values for the pIC50 in experiment [2], in experiment [3] and in experiment [4] were 5.57, 7.43 and 5.57, respectively.
Consider `Nc1ncnc2c1c(-c1cccc(O)c1)cn2C1CCN(CCO)CC1`, for which, in experiment [1], the IC50 was 98 nM. Also, the negative-log IC50 (pIC50) was 6.22 in experiment [2], less than 5.00 in experiment [6], 9.00 in experiment [3] and 5.60 in experiment [4].
For `COc1cccc(-c2cn(C3CCN(CCN(C)CCO)CC3)c3ncnc(N)c23)c1`, in that order: 360 nM, 6.22, 5.11, 8.22 and 6.53.
Turning to `CC(C)(C)OC(=O)N1CCC(n2cc(-c3cccc(O)c3)c3c(N)ncnc32)C1` (stereo not drawn), the half-maximal inhibitory concentration (IC50) in experiment [1] worked out at 58 nM. For the same molecule, the pIC50 was 5.51 in experiment [2], less than 5.00 in experiment [6], 8.30 in experiment [3] and 5.66 in experiment [4].
In turn, `NC(=O)CN1CCC(n2cc(-c3cccc(O)c3)c3c(N)ncnc32)C1` (stereo not drawn) came in with an IC50 in experiment [1] of 150 nM. Further, the pIC50 in experiment [6] is less than 5.00; in experiment [3] it was 8.40; in experiment [4] it was 6.40.
In experiment [1], `COC(=O)CN1CCC(n2cc(-c3cccc(OC)c3)c3c(N)ncnc32)C1` (stereo not drawn) displayed a 50% inhibitory concentration (IC50) of 590 nM. The pIC50 is less than 5.30 in experiment [2] and 7.30 in experiment [3].
Turning to `COC(=O)CN1CCC(n2cc(-c3cccc(OC)c3)c3c(N)ncnc32)CC1`, the IC50 in experiment [1] stood at 1000 nM. In addition, the results for the negative-log IC50 (pIC50) in experiment [2] and in experiment [3] were 5.55 and 7.08, respectively.
In the case of `Nc1ncnc2c1c(-c1ccc(O)cc1)cn2[C@H]1CNC(CO)C1` (single isomer, unassigned), the negative logarithm of the IC50 (pIC50) was less than 5.30 in experiment [2] and 7.30 in experiment [3].
`CCOC(=O)C[C@H]1C[C@H](n2cc(-c3ccccc3)c3c(N)ncnc32)CN1C(=O)OC(C)(C)C`: the negative-log IC50 (pIC50) in experiment [3] is 6.39.
Take `CC(C)(C)OC(=O)N1CCC(n2cc(-c3ccc(O)cc3)c3c(N)ncnc32)C1` (stereo not drawn): the pIC50 in experiment [2] is 6.40; in experiment [3], 8.10.
In experiment [3], `COc1ccc(-c2cn(C3CCNC3)c3ncnc(N)c23)cc1` (stereo not drawn) showed a pIC50 of 6.52.
Take `COc1ccc(-c2cn(C3CCN(C(=O)OC(C)(C)C)C3)c3ncnc(N)c23)cc1` (stereo not drawn): the pIC50 in experiment [2] and in experiment [3] was 6.40 in each case.
For the molecule `Nc1ncnc2c1c(-c1ccccc1)cn2C1CCNC1` (stereo not drawn), the negative logarithm of the IC50 (pIC50) in experiment [3] is 6.64.
`COc1cccc(-c2cn(C3CCN(CCO)CC3)c3ncnc(N)c23)c1`: the IC50 in experiment [1] was found to be 1030 nM. Besides, the pIC50 in experiment [2] is 5.85; in experiment [6] it was less than 5.00; in experiment [3], 7.57; in experiment [4] it was 6.05.
Take `CC(C)(C)OC(=O)N1C[C@@H](n2cc(-c3ccc(O)cc3)c3c(N)ncnc32)C[C@@H]1CO`: the pIC50 in experiment [2] is 5.48; in experiment [3], 7.62.

(Values after ChEMBL document CHEMBL1134003, “7-Pyrrolidinyl- and 7-piperidinyl-5-aryl-pyrrolo[2,3-d]pyrimidines--potent inhibitors of the tyrosine kinase c-Src” (Bioorg Med Chem Lett, 2001).)
